# Molecular target: Axl (Homo sapiens (Human), UniProt P30530)
# Assay: Phospho-Akt in-cell Western assay (Axl-antibody cross-linking stimulation)
# Type: cell-based
# Conditions: inhibition of Axl activity, Hela cells, phospho-Akt readout; Table 1, formula (Ia1)
# Summary of the method: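 HeLa cells on poly-L-lysine, starved 24 hrs with Axl/Fc, pre-treated with compound 1 hr at 37° C., then stimulated 5 min with Axl primary/secondary antibody cluster. Fixed cells probed for phospho-Akt by chemiluminescent in-cell Western; signal normalized to crystal violet cell number.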
# Axl, sequence (P30530 26-894): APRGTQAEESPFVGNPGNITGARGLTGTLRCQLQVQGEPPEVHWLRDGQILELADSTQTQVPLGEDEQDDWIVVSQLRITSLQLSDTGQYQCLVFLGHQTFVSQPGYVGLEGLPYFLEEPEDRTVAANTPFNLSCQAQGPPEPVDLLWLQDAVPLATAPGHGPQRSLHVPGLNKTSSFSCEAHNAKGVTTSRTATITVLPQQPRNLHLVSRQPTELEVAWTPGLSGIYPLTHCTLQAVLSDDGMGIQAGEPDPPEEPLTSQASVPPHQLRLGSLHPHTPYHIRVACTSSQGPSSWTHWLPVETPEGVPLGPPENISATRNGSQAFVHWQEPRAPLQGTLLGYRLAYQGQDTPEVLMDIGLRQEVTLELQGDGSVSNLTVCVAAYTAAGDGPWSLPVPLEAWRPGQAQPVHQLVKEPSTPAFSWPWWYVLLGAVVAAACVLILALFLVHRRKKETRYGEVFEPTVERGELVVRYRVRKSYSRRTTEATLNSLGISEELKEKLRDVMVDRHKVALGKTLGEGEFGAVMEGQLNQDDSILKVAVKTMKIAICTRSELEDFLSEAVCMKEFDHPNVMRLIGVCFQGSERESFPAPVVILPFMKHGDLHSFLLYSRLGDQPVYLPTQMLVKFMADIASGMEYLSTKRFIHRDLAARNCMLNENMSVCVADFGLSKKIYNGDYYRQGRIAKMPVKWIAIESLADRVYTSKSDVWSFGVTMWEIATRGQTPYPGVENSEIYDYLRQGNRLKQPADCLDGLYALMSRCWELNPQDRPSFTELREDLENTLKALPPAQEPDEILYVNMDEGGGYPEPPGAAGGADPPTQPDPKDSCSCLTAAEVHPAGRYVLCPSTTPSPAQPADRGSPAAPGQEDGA
row,IC50 [nM],Structure (SMILES)
1,< 1000,"Nc1nc(Nc2ccc(OCCN3CCCC3)cc2)nn1-c1nc(Cl)nc2cc(Cl)sc12 [Compound 175, 1-(2,6-dichlorothieno[3,2-d]pyrimidin-4-yl)-N^3-(4-(2-pyrrolidin-1-ylethoxy)phenyl)-1H-1,2,4-triazole-3,5-diamine]"
2,< 1000,"Nc1nc(Nc2ccc(OCCN3CCCC3)cc2)nn1-c1nc(C(F)(F)F)nc2ccccc12 [Compound 53, N^3-(4-(2-(pyrrolidin-1-yl)ethoxy)phenyl)-1-(2-(trifluoromethyl)quinazolin-4-yl)-1H-1,2,4-triazole-3,5-diamine]"
3,> 20000,"CC1CCCN1CCOc1ccc(Nc2nc(N)n(-c3nc4ccccc4n3C)n2)cc1 (stereo not shown) [Compound 23, 1-(1-methyl-1H-benzo[d]imidazol-2-yl)-N^3-(4-(2-(2-methylpyrrolidin-1-yl)ethoxy)phenyl)-1H-1,2,4-triazole-3,5-diamine]"
4,< 1000,"Nc1nc(Nc2ccc(OCCN3CCCC3)c(Cl)c2)nn1-c1ncnc2sc3c(c12)CCCC3 [Compound 67, N^3-(3-chloro-4-(2-(pyrrolidin-1-yl)ethoxy)phenyl)-1-(5,6,7,8-tetrahydrobenzo[4,5]thieno[2,3-d]pyrimidin-4-yl)-1H-1,2,4-triazole-3,5-diamine]"
5,> 20000,"Nc1nc(Nc2ccc(OCCN3CCCC3)cc2)nn1-c1ccc(S(N)(=O)=O)cc1 [Compound 8, 4-(5-amino-3-(4-(2-(pyrrolidin-1-yl)ethoxy)phenylamino)-1H-1,2,4-triazol-1-yl)benzenesulfonamide]"
6,< 1000,"CC1CCC(C)N1CCOc1ccc(Nc2nc(N)n(-c3cnc4ccccc4n3)n2)cc1 (stereo not shown) [Compound 46, N^3-(4-(2-(2,5-dimethylpyrrolidin-1-yl)ethoxy)phenyl)-1-(quinoxalin-2-yl)-1H-1,2,4-triazole-3,5-diamine]"

# Same assay, conditions: inhibition of Axl activity, Hela cells, phospho-Akt readout; Table 5, formula (Ia3)
row,IC50 [nM],Structure (SMILES)
1,< 1000,"COc1ccc2nc(Cl)c(-n3nc(Nc4ccc(N5CCC(N6CCCC6)CC5)c(F)c4)nc3N)nc2c1 [Compound 256, 1-(2-chloro-6-methoxy-quinoxalin-3-yl)-N^3-(3-fluoro-4-(4-(pyrrolidin-1-yl)piperidin-1-yl)phenyl)-1H-1,2,4-triazole-3,5-diamine]"
2,> 20000,"Nc1nc(Nc2ccc(CCC(=O)N3CCCC3)cc2)nn1-c1cnc2ccccc2n1 [Compound 152, 3-(4-(5-amino-1-(quinoxalin-2-yl)-1H-1,2,4-triazol-3-ylamino)phenyl)-1-(pyrrolidin-1-yl)propan-1-one]"
3,> 20000,"Nc1nc(Nc2cccc(O)c2)nn1-c1ccccn1 [Compound 150, 3-(5-amino-1-(pyridin-2-yl)-1H-1,2,4-triazol-3-ylamino)phenol]"
4,< 1000,"Nc1nc(Nc2ccc(N3CCOCC3)c(F)c2)nn1-c1nccc2ccccc12 [Compound 161, N^3-(3-fluoro-4-morpholinophenyl)-1-(isoquinolin-1-yl)-1H-1,2,4-triazole-3,5-diamine]"

# Same assay, conditions: inhibition of Axl activity, Hela cells, phospho-Akt readout; Table 7, formula (Ia4)
row,IC50 [nM],Structure (SMILES)
1,< 1000,"COc1cc2ncnc(-n3nc(Nc4ccc5c(c4)CCC(N4CCCC4)CC5)nc3N)c2cc1OC (stereo not shown) [Compound 220, 1-(6,7-dimethoxy-quinazolin-4-yl)-N^3-(7-pyrrolidin-1-yl-6,7,8,9-tetrahydro-5H-benzo[7]annulene-2-yl)-1H-1,2,4-triazole-3,5-diamine]"

# Same assay, conditions: inhibition of Axl activity, phospho-Akt in-cell Western assay
row,IC50 [nM],Structure (SMILES)
1,< 1000,"COc1cc2c(-n3nc(Nc4ccc(N5CCN(C6CCCCC6)CC5)cc4)nc3N)ncnc2cc1O [Compound 82, 4-(5-amino-3-(4-(4-cyclohexylpiperazin-1-yl)phenylamino)-1H-1,2,4-triazol-1-yl)-6-methoxyquinazolin-7-ol]"
2,< 1000,"Cc1csc2c(-n3nc(Nc4ccc(C5CCN(C6CC7CCC6C7)CC5)cc4)nc3N)nc(Cl)nc12 (stereo not shown) [Compound 134, N^3-(4-(1-(bicyclo[2.2.1]heptan-2-yl)piperidin-4-yl)phenyl)-1-(2-chloro-7-methylthieno[3,2-d]pyrimidin-4-yl)-1H-1,2,4-triazole-3,5-diamine]"
